Experimental data taken from ChEMBL document CHEMBL2202978, “Synthesis and antiviral activity of novel HCV NS3 protease inhibitors with P4 capping groups” (Bioorg Med Chem Lett, 2012).

Legend:
[1] = Drug absorption in Sprague-Dawley rat portal vein at 6.15 mg/kg, po; format: ADME, organism-based; set-up: dose 6.15 mg/kg, route oral; conditions: read-out: Drug absorption
[2] = Oral bioavailability in Sprague-Dawley rat at 6.15 mg/kg; format: ADME, organism-based; conditions: in vivo
[3] = test system: Hepatitis C virus; assay: Antiviral activity against HCV subtype 1b expressing NS3/4A A156S mutant protease infected in ET cells after 72 hrs; format: functional, organism-based, Hepacivirus hominis; conditions: genotype 1b
[4] = AUC (0 to infinity) in Sprague-Dawley rat at 6.15 mg/kg, po; format: ADME, organism-based; set-up: time infinity, dose 6.15 mg/kg, route oral; conditions: plasma
[5] = test system: Hepatitis C virus; assay: Antiviral activity against HCV subtype 1b expressing NS3/4A A156V mutant protease infected in ET cells after 72 hrs; format: functional, organism-based, Hepacivirus hominis; conditions: genotype 1b
[6] = test system: Hepatitis C virus; assay: Antiviral activity against HCV subtype 1b expressing wild type NS3/4A protease infected in ET cells after 72 hrs; format: functional, organism-based, Hepacivirus hominis; conditions: genotype 1b
[7] = test system: Hepatitis C virus; assay: Antiviral activity against HCV subtype 1b infected in human hepatoma cells; format: functional, organism-based, Hepacivirus hominis; conditions: genotype 1b
[8] = Clearance in Sprague-Dawley rat at 1.23 mg/kg, iv; format: ADME, organism-based; set-up: dose 1.23 mg/kg, route intravenous; conditions: in vivo
[9] = test system: Hepatitis C virus; assay: Antiviral activity against HCV subtype 1b expressing NS3/4A R115K mutant protease infected in ET cells after 72 hrs; format: functional, organism-based, Hepacivirus hominis; conditions: genotype 1b
[10] = Terminal half life in Sprague-Dawley rat at 6.15 mg/kg, po and 1.23 mg/kg, iv; format: ADME, organism-based; conditions: in vivo, read-out: beta t1/2 (converted)
[11] = test system: Hepatitis C virus; assay: Antiviral activity against HCV subtype 1a infected in human hepatoma cells; format: functional, organism-based, Hepacivirus hominis
[12] = AUC in Sprague-Dawley rat at 1.23 mg/kg, iv; format: ADME, organism-based; set-up: dose 1.23 mg/kg, route intravenous; conditions: plasma
[13] = Inhibition of HCV subtype 1a NS3/4A protease (Ac-DE-Dap(QXL520)-EE-Abu-psi-[COO]-ASC(5-FAMsp)-NH2 as substrate by FRET analysis; set-up: species or system Hepatitis C virus subtype 1a
[14] = test system: Hepatitis C virus; assay: Antiviral activity against HCV subtype 1b expressing NS3/4A A156T mutant protease infected in ET cells after 72 hrs; format: functional, organism-based, Hepacivirus hominis; conditions: genotype 1b
[15] = test system: Hepatitis C virus; assay: Antiviral activity against HCV subtype 1b expressing NS3/4A D168A mutant protease infected in ET cells after 72 hrs; format: functional, organism-based, Hepacivirus hominis; conditions: genotype 1b
[16] = test system: Hepatitis C virus; assay: Antiviral activity against HCV subtype 1b expressing NS3/4A D168V mutant protease infected in ET cells after 72 hrs; format: functional, organism-based, Hepacivirus hominis; conditions: genotype 1b
[17] = AUC (0 to infinity) in Sprague-Dawley rat at 5 mg/kg, po; format: ADME, organism-based; set-up: time infinity, dose 5 mg/kg, route oral; conditions: plasma
[18] = Clearance in Sprague-Dawley rat at 1 mg/kg, iv; format: ADME, organism-based; set-up: dose 1 mg/kg, route intravenous; conditions: in vivo
[19] = Drug absorption in Sprague-Dawley rat portal vein at 5 mg/kg, po; format: ADME, organism-based; set-up: dose 5 mg/kg, route oral; conditions: read-out: Drug absorption
[20] = Terminal half life in Sprague-Dawley rat at 5 mg/kg, po and 1 mg/kg, iv; format: ADME, organism-based; conditions: in vivo, read-out: beta t1/2 (converted)
[21] = Oral bioavailability in Sprague-Dawley rat at 5 mg/kg; format: ADME, organism-based; conditions: in vivo
[22] = AUC in Sprague-Dawley rat at 1 mg/kg, iv; format: ADME, organism-based; set-up: dose 1 mg/kg, route intravenous; conditions: plasma

SMILES | EC50 [3] | EC50 [5] | EC50 [6] | EC50 [7] | EC50 [9] | EC50 [11] | IC50 [13] | EC50 [14] | EC50 [15] | EC50 [16] | also measured
COc1ccc2c(O[C@@H]3C[C@H]4C(=O)N[C@]5(C(=O)NS(=O)(=O)C6CC6)C[C@H]5/C=C\CCCCC[C@H](NC(=O)OC(C)(C)C)C(=O)N4C3)cc(-c3nc(C4CC4)cs3)nc2c1C | 0.08 nM | 1.5 nM | 0.02 nM | 0.4 nM | 6 nM | 0.4 nM | 6.3 nM | 1.9 nM | – | – | Fa [1]: 14.5%; bioavailability [2]: 10%; AUC(0-inf) [4]: 201 ng·h/mL; clearance [8]: 45.6 mL/min/kg; half-life [10]: 1.63 h; AUC [12]: 381 ng·h/mL
COc1ccc2c(O[C@@H]3C[C@H]4C(=O)N[C@]5(C(=O)NS(=O)(=O)C6CC6)C[C@H]5/C=C\CCCCC[C@H](NC(=O)C(=O)NC(C)(C)C)C(=O)N4C3)cc(-c3nc(C4CC4)cs3)nc2c1C | – | – | – | 0.7 nM | – | 0.6 nM | 4 nM | – | – | – | –
COc1ccc2c(O[C@@H]3C[C@H]4C(=O)N[C@]5(C(=O)NS(=O)(=O)C6CC6)C[C@H]5/C=C\CCCCC[C@H](N/C(=N\C#N)NC(C)(C)C)C(=O)N4C3)cc(-c3nc(C4CC4)cs3)nc2c1C | 0.5 nM | 78 nM | 0.3 nM | 0.7 nM | 123 nM | 2.5 nM | 2.5 nM | 27 nM | 331 nM | 832 nM | –
CCOC(=O)C(=O)N[C@H]1CCCCC/C=C\[C@@H]2C[C@@]2(C(=O)NS(=O)(=O)C2CC2)NC(=O)[C@@H]2C[C@@H](Oc3cc(-c4nc(C5CC5)cs4)nc4c(C)c(OC)ccc34)CN2C1=O | – | – | – | 1.2 nM | – | 2.6 nM | 1 nM | – | – | – | –
COc1ccc2c(O[C@@H]3C[C@H]4C(=O)N[C@]5(C(=O)NS(=O)(=O)C6CC6)C[C@H]5/C=C\CCCCC[C@H](NC(=O)N(C)C)C(=O)N4C3)cc(-c3nc(C4CC4)cs3)nc2c1C | 0.05 nM | 2 nM | 0.03 nM | 0.2 nM | 0.5 nM | 0.3 nM | 0.5 nM | 0.5 nM | 14 nM | 27 nM | –
COc1ccc2c(O[C@@H]3C[C@H]4C(=O)N[C@]5(C(=O)NS(=O)(=O)C6CC6)C[C@H]5/C=C\CCCCC[C@H](N5CCCC5=O)C(=O)N4C3)cc(-c3nc(C4CC4)cs3)nc2c1C | 6.2 nM | 646 nM | 8.7 nM | 24 nM | 794 nM | 42 nM | 20 nM | 219 nM | 1350 nM | 3980 nM | –
COc1ccc2c(O[C@@H]3C[C@H]4C(=O)N[C@]5(C(=O)NS(=O)(=O)C6CC6)C[C@H]5/C=C\CCCCC[C@H](N)C(=O)N4C3)cc(-c3nc(C4CC4)cs3)nc2c1C | 1.2 nM | 41 nM | 1 nM | 1 nM | 155 nM | 0.7 nM | 1.3 nM | 20 nM | 229 nM | 1660 nM | –
COc1ccc2c(O[C@@H]3C[C@H]4C(=O)N[C@]5(C(=O)NS(=O)(=O)C6CC6)C[C@H]5/C=C\CCCCC[C@H](NC(=O)C(C)=O)C(=O)N4C3)cc(-c3nc(C4CC4)cs3)nc2c1C | – | – | – | 0.6 nM | – | 0.5 nM | 0.8 nM | – | – | – | –
COc1ccc2c(O[C@@H]3C[C@H]4C(=O)N[C@]5(C(=O)NS(=O)(=O)C6CC6)C[C@H]5/C=C\CCCCC[C@H](N5CCOC5=O)C(=O)N4C3)cc(-c3nc(C4CC4)cs3)nc2c1C | 3.5 nM | 151 nM | 27 nM | 14 nM | 977 nM | 17 nM | 2.5 nM | 107 nM | 1820 nM | 3020 nM | –
COc1ccc2c(O[C@@H]3C[C@H]4C(=O)N[C@]5(C(=O)NS(=O)(=O)C6CC6)C[C@H]5/C=C\CCCCC[C@H](NC(=O)C5(OC)CCCC5)C(=O)N4C3)cc(-c3nc(C4CC4)cs3)nc2c1C | 0.09 nM | 49 nM | 0.05 nM | 0.3 nM | 25 nM | 0.3 nM | 4 nM | 13 nM | 50 nM | 234 nM | –
CCN(CC)C(=O)N[C@H]1CCCCC/C=C\[C@@H]2C[C@@]2(C(=O)NS(=O)(=O)C2CC2)NC(=O)[C@@H]2C[C@@H](Oc3cc(-c4nc(C5CC5)cs4)nc4c(C)c(OC)ccc34)CN2C1=O | 0.1 nM | 5.5 nM | 0.03 nM | 0.2 nM | 4 nM | 0.3 nM | 0.6 nM | 1 nM | 19 nM | 51 nM | AUC(0-inf) [17]: 48.7 ng·h/mL; clearance [18]: 152 mL/min/kg; Fa [19]: 19%; half-life [20]: 1.4 h; bioavailability [21]: 7.4%; AUC [22]: 127 ng·h/mL
COc1ccc2c(O[C@@H]3C[C@H]4C(=O)N[C@]5(C(=O)NS(=O)(=O)C6CC6)C[C@H]5/C=C\CCCCC[C@H](NC(=O)C(=O)NC5CCCCC5)C(=O)N4C3)cc(-c3nc(C4CC4)cs3)nc2c1C | – | – | – | 0.5 nM | – | 0.5 nM | 6.3 nM | – | – | – | –
COc1ccc2c(O[C@@H]3C[C@H]4C(=O)N[C@]5(C(=O)NS(=O)(=O)C6CC6)C[C@H]5/C=C\CCCCC[C@H](NC(=O)C(=O)N5CCCCC5)C(=O)N4C3)cc(-c3nc(C4CC4)cs3)nc2c1C | 0.1 nM | 6.2 nM | 0.02 nM | 0.4 nM | 14 nM | 0.5 nM | 1 nM | 5.5 nM | 49 nM | 151 nM | –
COc1ccc2c(O[C@@H]3C[C@H]4C(=O)N[C@]5(C(=O)NS(=O)(=O)C6CC6)C[C@H]5/C=C\CCCCC[C@H](NC(=O)C(=O)N5CCCC5)C(=O)N4C3)cc(-c3nc(C4CC4)cs3)nc2c1C | – | – | – | 0.4 nM | – | 0.4 nM | 1.3 nM | – | – | – | –
CC(C)(C)OC(=O)N[C@H]1CCCCC/C=C\[C@@H]2C[C@@]2(C(=O)NS(=O)(=O)C2CC2)NC(=O)[C@@H]2C[C@@H](OC(=O)N3Cc4cccc(F)c4C3)CN2C1=O [DANOPREVIR] | 2 nM | 8 nM | 0.2 nM | – | 82 nM | – | 0.7 nM | 10 nM | 39 nM | 26 nM | –
COc1ccc2c(O[C@@H]3C[C@H]4C(=O)N[C@]5(C(=O)NS(=O)(=O)C6CC6)C[C@H]5/C=C\CCCCN(C)C(=O)[C@@H]4C3)cc(-c3nc(C(C)C)cs3)nc2c1C [SIMEPREVIR] | 0.3 nM | 344 nM | 1 nM | 1 nM | 56 nM | 2 nM | 10 nM | 86 nM | 149 nM | 140 nM | –
COc1ccc2c(O[C@@H]3C[C@H]4C(=O)N[C@]5(C(=O)NS(=O)(=O)C6CC6)C[C@H]5/C=C\CCCCC[C@H](NC(=O)C5(OC)CCC5)C(=O)N4C3)cc(-c3nc(C4CC4)cs3)nc2c1C | 0.3 nM | 85 nM | 0.04 nM | 0.1 nM | 44 nM | 0.2 nM | 2 nM | 20 nM | 91 nM | 263 nM | AUC(0-inf) [17]: 49.1 ng·h/mL; clearance [18]: 144 mL/min/kg; Fa [19]: 16.5%; half-life [20]: 0.99 h; bioavailability [21]: 8.2%; AUC [22]: 117 ng·h/mL
CCC[C@H](NC(=O)[C@@H]1[C@H]2CCC[C@H]2CN1C(=O)[C@@H](NC(=O)[C@@H](NC(=O)c1cnccn1)C1CCCCC1)C(C)(C)C)C(=O)C(=O)NC1CC1 [TELAPREVIR] | 883 nM | 1960 nM | 34 nM | – | 1780 nM | – | 500 nM | 1140 nM | 638 nM | 207 nM | –
COc1ccc2c(O[C@@H]3C[C@H]4C(=O)N[C@]5(C(=O)NS(=O)(=O)C6CC6)C[C@H]5/C=C\CCCCC[C@H](NC(=O)C5(OC)CC5)C(=O)N4C3)cc(-c3nc(C4CC4)cs3)nc2c1C | – | – | – | 0.2 nM | – | 0.2 nM | 1.6 nM | – | – | – | –
